According to patent publication US10473645B2, “Methods for identifying a receptor for a ligand and uses thereof” (UNIVERSITE DE GENEVE, priority 2014, dated 2019):
Values belong to the molecule of their own block, whether it stands above or below them.

Experiments:
Olfr167 [1] = molecular target: T1, Olfr167 (Mus musculus, UniProt Q8VGJ5); experiment: OR transcripts by qPCR after ex vivo exposure of olfactory epithelia; format: cell-based; conditions: 50 μM, 2 hours, olfactory epithelia in vitro in ACSF medium
T1 construct: from tissue; host or cells: main olfactory epithelium of C57BL/6 mice (in vivo exposure) or explanted mouse olfactory epithelia (ex vivo)
T1 sequence (Q8VGJ5 1-312): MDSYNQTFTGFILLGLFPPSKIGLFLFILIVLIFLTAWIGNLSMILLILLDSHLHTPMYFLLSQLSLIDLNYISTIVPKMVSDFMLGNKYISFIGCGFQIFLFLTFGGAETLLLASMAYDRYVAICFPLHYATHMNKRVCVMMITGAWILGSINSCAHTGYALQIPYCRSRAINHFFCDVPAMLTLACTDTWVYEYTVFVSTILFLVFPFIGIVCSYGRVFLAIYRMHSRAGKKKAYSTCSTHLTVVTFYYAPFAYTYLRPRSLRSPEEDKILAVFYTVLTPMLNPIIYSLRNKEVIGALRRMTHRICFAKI
Method: (§1) In vitro exposure to odorant: The olfactory sensory mucosa of a live or recently dead vertebrate is collected and maintained alive in vitro. Sensory neurons are either left untouched or are dissociated. The exposure to the odorants is then performed in vitro, in a tube, in the liquid phase. The explants/neurons are kept alive in a physiological medium (such as 145 mM NaCl, 5 mM KCl, 1 mM CaCl2, 1 mM MgCl2, 10 mM HEPES, 10 mM glucose). […] The potential modulations of mRNA levels between the two populations are then evaluated, by qPCR (FIG. 2), RNAseq or other techniques, to identify the receptors that have been activated.
(§2) Mouse olfactory epithelia were collected and kept in vitro in ACSF medium where they were exposed for 2 hours to 50 μM ethyl isobutyrate. The number of transcripts for Olfr genes was then evaluated by qPCR, and those of Olfr167 and Olfr171 were both repressed after agonist exposure. Ethyl isobutyrate was previously shown to be an agonist for Olfr167 and Olfr171.

[2] = tested on: control odorant receptor genes (8 genes); experiment: OR transcript level by RT-qPCR after in vivo odorant exposure; design: species or system mouse; conditions: 5% odorant for 5 hours; margin of ±20% relative to control mice not significant
Method: (§3) In vivo exposure to odorant: Starting 48 h before experiments, mice were habituated to pure DMSO on a cotton ball. 200 μl were pipetted directly onto the cotton and placed in the cage, replacing any cotton that was already in the cage for nest-making purposes.
(§4) On the day of the experiment, mice receiving odorants were transferred to a different room, where they were exposed to a cotton ball on which 200 μl of odorant diluted in pure DMSO were deposited. Exposures started in the morning between 8 and 10 am (that is two hours after lights were on) and mice were killed and dissected between 1 and 3 pm. […]
(§5) RNA concentrations were determined using an Amersham Ultrospec® 3100 Pro spectrophotometer, and RNA quality was evaluated with an Agilent Technologies 2100 Bioanalyzer®. […]
(§6) qPCR Ct values were analyzed using an in-house developed Microsoft Excel® macro file. […] Ct values were converted to quantities relative to the maximum for each given gene. Selected reference genes were then analyzed for variance using the geNorm algorithm. […]
(§7) Adult C57BL/6 mice were exposed to 5% ethyl isobutyrate for 5 hours, and the level of transcripts of odorant receptors' genes were measured by RT-qPCR on extracts of olfactory epithelia from these mice, as described in the materials and methods section.

Olfr171 [3] = experiment: as above; design: species or system mouse; conditions: 5% odorant for 5 hours, sensory neuroepithelium, n=7 mice
Method: as §3, §4, §5, §6, §7

Olfr171 [4] = experiment: OR transcripts by qPCR after ex vivo exposure of olfactory epithelia; format: cell-based, Mouse; conditions: 50 μM, 2 hours, olfactory epithelia in vitro in ACSF medium
Method: as §1, §2

[5] = tested on: neurons expressing Olfr983; experiment: pS6 immunolabeling with OR in situ hybridization after odorant exposure; format: in vivo, mouse; conditions: 5% odorant, 60 minutes, in vivo
Method: (§8) In order to independently validate the identity of an acetophenone receptor obtained with the RNAseq approach, the potential colocalization following acetophenone exposure of a neuronal activity marker (the phosphorylated ribosomal protein S6 (pS6) (Knight et al., 2012, Cell, 151, 1126-1137) and specific olfactory receptors were evaluated. To this aim, in-situ hybridizations were performed on sections of olfactory tissue with probes targeting receptor mRNAs followed by immunolabeling of pS6. The probes used were directed against the transcripts of most of the ORs determined as responsive including Olfr983 transcripts (encoding a known acetophenone receptor), Olfr171 transcripts (encoding a known ethyl isobutyrate receptor), and Olfr145 transcripts, encoding a newly identified receptor by RNAseq. Before analysis, mice were exposed to either 5% acetophenone, 5% ethyl isobutyrate, or a negative control condition for 60 minutes. […] 66% (Olfr983) and 70% (Olfr145) of the neurons were positive for pS6 after acetophenone exposure, while only 11% of the neurons expressing Olfr171 were positive for pS6 after exposure to this compound.

[6] = tested on: neurons expressing Olfr145; experiment: as above; format: in vivo, mouse; conditions: 5% odorant, 60 minutes, in vivo
Method: as §8

Olfr171 [7] = conditions: cited from earlier work
[8] = tested on: Olfr171-expressing neurons; experiment: pS6 immunolabeling with OR in situ hybridization after odorant exposure; design: species or system mouse; conditions: 5% odorant, 60 minutes, in vivo
Method: as §8

Olfr167 [9] = molecular target: T1, Olfr167; conditions: cited from earlier work
Olfr167 [10] = molecular target: T1, Olfr167; experiment: OR transcript level by RT-qPCR after in vivo odorant exposure; conditions: 5% odorant for 5 hours, sensory neuroepithelium, n=7 mice
Method: as §3, §4, §5, §6, §7

Olfr609 [11] = experiment: as above; design: species or system mouse; conditions: 5% odorant, 5 hours
Method: as §3
(§9) On the day of the experiment, mice receiving odorants were transferred to a different room, where they were exposed to a cotton ball on which 200 μl of odorant diluted in pure DMSO were deposited. Exposures started in the morning between 8 and 10 am (that is two hours after lights were on) and mice were killed and dissected between 1 and 3 pm. […] If a number of different odorants were tested in the same experiment, a different overpressurized room would always be used for each odorant to avoid odor cross-contamination.
(§10) After odorant exposure, mice were killed by cervical dislocation and immediately decapitated. […]
as §5, §6

Olfr609 [12] = conditions: HEK cells; previously shown; read-out: EC50 as agonist of Olfr609; cited from earlier work
Olfr2 [13] = molecular target: T2, Olfr2 (Mus musculus, UniProt Q9QWU6); conditions: HEK cells; previously shown; read-out: EC50 as agonist of Olfr2; cited from earlier work
T2 construct: host or cells: HEK cells

Olfr2 [14] = molecular target: T2, Olfr2; experiment: OR transcript level by RT-qPCR after in vivo odorant exposure; conditions: 5% odorant, 5 hours
Method: as §3, §9, §10, §5, §6

Olfr16 [15] = molecular target: T3, Olfr16 (Mus musculus, UniProt Q62007); experiment: as above; design: from tissue; host or cells: main olfactory epithelium of exposed mice; conditions: 5% odorant, 5 hours
Method: as §3, §9, §10, §5, §6

Olfr16 [16] = molecular target: T3, Olfr16; design: host or cells: dissociated neurons; conditions: dissociated neurons; previously shown; read-out: EC50 as agonist of Olfr16; cited from earlier work
TAAR3 [17] = molecular target: T4, TAAR3 (Mus musculus, UniProt Q5QD16); conditions: Zhang et al, 2013; cited from earlier work
TAAR4 [18] = molecular target: T5, TAAR4 (Mus musculus, UniProt Q5QD15); conditions: Zhang et al, 2013; cited from earlier work
T5 construct: from tissue; host or cells: main olfactory epithelium of living mice

TAAR4 [19] = molecular target: T5, TAAR4; experiment: TAAR transcript level by RT-qPCR after in vivo exposure; conditions: olfactory stimulation during 48 hours
Method: as §3, §9
(§11) After odorant exposure, mice were killed by cervical dislocation and immediately decapitated. The main olfactory epithelia (MOE), were harvested in their entirety and transferred to a tube containing 600 μl of lysis buffer and β-mercaptoethanol (RNAeasy kit, Qiagen, following the manufacturer protocol) and a 0.5 cm diameter steel ball, and then put on ice. Samples were then homogenized using a FastPrep®-24 instrument (MP Biomedicals) at 6 m/s for 30 s and left on ice. […]
as §5, §6
(§12) Transcript levels of olfactory receptor gene were evaluated following olfactory stimulation during 48 hours by beta-phenylethylamine. Olfactory receptor gene transcript levels were evaluated by RT-qPCR for each receptor gene, and the ratios between the values obtained in exposed versus control mice are shown in FIG. 6. […]

TAAR6 = molecular target: T6, TAAR6 (Mus musculus, UniProt Q5QD13); experiment: as above; conditions: olfactory stimulation during 48 hours
T6 construct: from tissue; host or cells: main olfactory epithelium of living mice
Method: as §3, §9, §11, §5, §6, §12

TAAR3 [20] = molecular target: T4, TAAR3; experiment: as above; conditions: olfactory stimulation during 48 hours
Method: as §3, §9, §11, §5, §6, §12

Olfr556 = molecular target: T7, Olfr556 (Mus musculus, UniProt B2RRG2); experiment: OR transcript level by RT-qPCR after in vivo odorant exposure; design: from tissue; host or cells: main olfactory epithelium of exposed mice; conditions: olfactory stimulation during 48 hours, RT-qPCR
T7 sequence (B2RRG2 1-324): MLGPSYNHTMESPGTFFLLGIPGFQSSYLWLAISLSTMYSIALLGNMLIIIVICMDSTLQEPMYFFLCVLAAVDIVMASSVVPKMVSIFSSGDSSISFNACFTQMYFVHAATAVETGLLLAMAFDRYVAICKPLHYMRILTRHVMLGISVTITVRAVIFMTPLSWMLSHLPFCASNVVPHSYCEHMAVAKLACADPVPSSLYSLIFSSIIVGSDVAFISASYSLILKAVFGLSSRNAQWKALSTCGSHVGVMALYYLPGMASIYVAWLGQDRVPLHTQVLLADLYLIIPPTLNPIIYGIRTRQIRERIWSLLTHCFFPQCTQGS
Method: as §3
as §9, with “Exposures started in the morning between 8 and 10 am (that is two hours after lights were on) and mice were killed and dissected between 1 and 3 pm.” left out
After odorant exposure, mice were killed by cervical dislocation and immediately decapitated. The main olfactory epithelia (MOE), were harvested in their entirety and transferred to a tube containing 600 μl of lysis buffer and β-mercaptoethanol (RNAeasy kit, Qiagen, following the manufacturer protocol) and a 0.5 cm diameter steel ball, and then put on ice. Samples were then homogenized using a FastPrep®-24 instrument (MP Biomedicals) at 6 m/s for 30 s and left on ice. RNA extraction was performed on all samples in parallel using the Qiagen RNeasy Mini® kit following the manufacturer's instructions. Two DNase treatments were performed on all samples: first using the Qiagen RNase-Free DNase Set® and then using the Life Technologies Ambion DNase I® kit. RNA samples were then aliquoted and stored at −80° C.
RNA concentrations were determined using an Amersham Ultrospec® 3100 Pro spectrophotometer, and RNA quality was evaluated with an Agilent Technologies 2100 Bioanalyzer®. Each reverse transcription was performed with 0.5 μg RNA using the Takara Primescript® kit, in a final volume of 10 μl. Primers for reverse transcription were equal mixtures of poly-T nucleotides and random hexamers. Negative controls (omitting the reverse transcriptase enzyme) were performed for each sample. 1/14th of the cDNA preparation was used for each triplicated qPCR reaction.
qPCR Ct values were analyzed using an in-house developed Microsoft Excel® macro file. Triplicate values were compared and outliers (values with a difference higher than 0.5 Ct to their nearest neighbor) were discarded. The number of conditions with an outlying value was always less than 10% of the total number of conditions. Ct values were converted to quantities relative to the maximum for each given gene. Selected reference genes were then analyzed for variance using the geNorm algorithm. All values were normalized with the olfactory tissue-specific genes Omp and Adcy3. β-Actin was used as a non-tissue-specific reference gene to control for differences in dissection between samples. […]

T5 sequence (Q5QD15 whole entry): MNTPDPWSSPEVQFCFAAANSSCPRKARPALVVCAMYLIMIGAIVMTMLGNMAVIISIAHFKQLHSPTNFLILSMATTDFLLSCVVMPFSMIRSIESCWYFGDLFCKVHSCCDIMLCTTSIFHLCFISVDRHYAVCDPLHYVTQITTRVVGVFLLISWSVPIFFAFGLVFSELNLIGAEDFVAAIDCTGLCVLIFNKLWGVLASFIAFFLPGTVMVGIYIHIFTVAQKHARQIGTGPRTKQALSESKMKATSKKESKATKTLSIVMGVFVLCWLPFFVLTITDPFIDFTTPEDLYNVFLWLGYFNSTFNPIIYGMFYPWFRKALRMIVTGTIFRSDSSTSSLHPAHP
T3 sequence (Q62007 whole entry): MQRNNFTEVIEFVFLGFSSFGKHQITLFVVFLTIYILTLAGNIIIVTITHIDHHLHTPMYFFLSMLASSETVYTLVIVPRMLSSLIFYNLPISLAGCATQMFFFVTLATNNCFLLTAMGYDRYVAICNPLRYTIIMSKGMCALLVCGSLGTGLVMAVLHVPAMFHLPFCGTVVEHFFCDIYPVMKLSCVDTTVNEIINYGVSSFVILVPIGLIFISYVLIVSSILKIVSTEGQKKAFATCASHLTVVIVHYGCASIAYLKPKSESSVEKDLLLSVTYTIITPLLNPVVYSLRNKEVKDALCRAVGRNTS
T4 sequence (Q5QD16 whole entry): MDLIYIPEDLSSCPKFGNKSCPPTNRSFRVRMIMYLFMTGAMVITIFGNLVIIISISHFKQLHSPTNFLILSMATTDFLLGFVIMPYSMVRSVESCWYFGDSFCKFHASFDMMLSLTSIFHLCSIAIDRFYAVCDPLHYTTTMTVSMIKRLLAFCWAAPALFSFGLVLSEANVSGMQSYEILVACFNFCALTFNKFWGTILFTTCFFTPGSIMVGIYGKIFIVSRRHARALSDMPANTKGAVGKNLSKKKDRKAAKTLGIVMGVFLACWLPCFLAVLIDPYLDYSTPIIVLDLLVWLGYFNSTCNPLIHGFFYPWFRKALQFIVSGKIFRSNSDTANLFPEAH
T2 sequence (Q9QWU6 1-327): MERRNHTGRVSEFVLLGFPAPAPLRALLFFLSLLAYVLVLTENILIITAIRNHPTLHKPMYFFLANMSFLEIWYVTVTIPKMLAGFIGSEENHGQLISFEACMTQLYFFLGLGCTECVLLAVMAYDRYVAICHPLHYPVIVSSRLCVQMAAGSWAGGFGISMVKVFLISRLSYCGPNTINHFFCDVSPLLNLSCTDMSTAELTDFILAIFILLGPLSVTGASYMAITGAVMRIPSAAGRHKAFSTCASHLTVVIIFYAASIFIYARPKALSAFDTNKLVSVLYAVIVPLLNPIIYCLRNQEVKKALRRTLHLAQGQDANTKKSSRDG
T6 sequence (Q5QD13 whole entry): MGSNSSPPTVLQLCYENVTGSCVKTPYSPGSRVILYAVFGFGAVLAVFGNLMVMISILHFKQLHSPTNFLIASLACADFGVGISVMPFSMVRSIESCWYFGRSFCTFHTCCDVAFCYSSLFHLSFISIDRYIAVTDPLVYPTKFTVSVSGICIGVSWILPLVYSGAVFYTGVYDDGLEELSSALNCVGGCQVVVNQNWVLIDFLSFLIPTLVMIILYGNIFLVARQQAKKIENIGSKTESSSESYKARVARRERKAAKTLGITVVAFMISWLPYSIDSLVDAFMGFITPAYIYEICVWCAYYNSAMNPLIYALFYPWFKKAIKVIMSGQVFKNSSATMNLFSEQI

Compound: CCOC(=O)C(C)C [ethyl isobutyrate]
number of Olfr167 transcripts after agonist exposure (Olfr167 [1]): repressed | concentration of control odorant receptor gene transcripts [2]: none of the control odorant receptor genes (8 genes) was significantly affected | mRNA concentration of Olfr171, decreased, relative to unexposed controls (Olfr171 [3]): 74% | number of Olfr171 transcripts after agonist exposure (Olfr171 [4]): repressed | fraction of Olfr983-expressing neurons positive for pS6 [5]: 12% | fraction of Olfr145-expressing neurons positive for pS6 [6]: 28% | action on Olfr171 previously shown (Olfr171 [7]): agonist | fraction of Olfr171-expressing neurons positive for pS6 [8]: 67% | action on Olfr167 previously shown (Olfr167 [9]): agonist | mRNA concentration of Olfr167, decreased, relative to unexposed controls (Olfr167 [10]): 47%

Compound: COc1cc(C(=O)O)ccc1O [vanillic acid]
Olfr609 mRNA level relative to unexposed controls (Olfr609 [11]): decrease | EC50 (Olfr609 [12]): < 50 µM

Olfr2 mRNA level relative to unexposed controls (Olfr2 [14]): decrease
Compound: CCCCCCC=O [heptanal]
EC50 (Olfr2 [13]): < 50 µM

Olfr16 mRNA level relative to unexposed controls (Olfr16 [15]): decrease
Compound: CC(C)(O)CCCC1=CCC(C=O)CC1 (stereo not shown) [lyral]
EC50 (Olfr16 [16]): < 50 µM

Compound: NCCc1ccccc1 [beta-phenylethylamine]
TAAR3 response previously shown (TAAR3 [17]): respond | TAAR4 response previously shown (TAAR4 [18]): respond | number of transcripts encoding TAAR4 (TAAR4 [19]): decrease | TAAR6 transcript level (negative control) (TAAR6): not affected | number of transcripts encoding TAAR3 (TAAR3 [20]): decrease | Olfr556 transcript level (negative control) (Olfr556): not affected
